# Measurements as given in US5637619A, “Antitumor 2-aminocarbonyl-1, 2-bis(methylsulfonyl)-1-(substituted)hydrazines” (Yale University, priority 1995, dated 1997).
# “Also recorded” adds a separate entry of the source.
# Assays:
# L1210 leukemia = L1210 leukemia survival time in mice (ip implanted); assay type: in vivo, mice (CD2F1); conditions: for %T/C (average survival time treated/control × 100): cures not included
# Protocol: (§1) Leukemia L1210 cells were obtained from the Frederick Cancer Research Facility, Division of Cancer Treatment Tumor Repository of the National Cancer Institute, and were maintained by serial passage in tissue culture. Every 8 weeks, tumor cells were injected intraperitoneally into five donor CD2 F1 mice 8- to 10- weeks of age and were allowed to grow for 7 days. The peritoneal fluid was withdrawn and the suspension was centrifuged for 5 min at 1600 g. The supernatant was decanted and 10^5 cells/mL were seeded into 10 mL of RPMI 1640 medium supplemented with 10% fetal bovine serum and 1% L-glutamine, and once again maintained in culture. To assay for antineoplastic activity, 0.1 mL of the cell suspension containing 10^5 L1210 leukemia cells was injected ip into each recipient mouse. Test compounds were administered over a wide range of dosage levels, beginning 24 h after tumor implantation, and continued once daily for 6 consecutive days. All drugs were administered ip as a solution in 100% dimethylsulfoxide (DMSO), in a volume not exceeding 0.025 mL. […] Mice were weighed during the course of the experiments, and the percentage change in body weight from onset to termination of therapy was used as an indication of drug toxicity. Determination of the sensitivity of neoplasms to these agents was based upon the prolongation of survival time afforded by the drug treatments.
# (§2) ^a Administered ip once daily for six consecutive days, beginning 24 hours after tumor implantation, with 5-10 mice being used per group. ^b Average percent change in body weight from onset to termination of therapy. ^c % T/C=average survival time of treated/control mice×100; cures (>60-day survivors) are listed separately and are not included in this calculation.
# [1] = Body weight change / toxicity in L1210-bearing mice; assay type: in vivo, mice (CD2F1); conditions: for Av. Wt. Change %: L1210-bearing mice
# Protocol: as §1, §2
# [2] = test system: LX-1 human lung carcinoma; assay: LX-1 human lung carcinoma xenograft, sc in athymic mice; assay type: in vivo, human tumor in athymic (nu/nu) mice; conditions: 40 mg/kg/injection, q2d × 5 from day 6, iv, 100% DMSO
# Protocol: The M5076 reticulum cell sarcoma was passaged biweekly by sc transfer of tumor fragments into C57BL/6 mice, and the M109 lung carcinoma was similarly passaged in BALB/c mice. The LX-1 human lung carcinoma was passaged sc every two to three weeks in BALB/c-background athymic (nu/nu) mice. For use in these systems, compound III was dissolved in: (a) 100% DMSO and administered by iv injection in a fixed volume of 10 microliters; or (b) DMSO diluted with saline to a final concentration of 10% DMSO and administered iv in a volume of 0.01 milliliter/g of body weight. […] Mitomycin C and cyclophosphamide were dissolved and administered in saline. BCNU and MeCCNU were dissolved in ethanol and diluted 1:9 (v/v) with water prior to administration.
# Five mice per group were employed in experiments with the B16F10 melanoma, and 8 mice per group with the M5076 sarcoma, the M109 carcinoma and the LX-1 carcinoma. A minimum of two dose levels per compound were included in each evaluation and drug therapy was initiated 24 h after tumor implantation for the M5076 sarcoma and M109 carcinoma. In the LX-1 experiment, tumor bearing mice were selected and sorted into treatment and control groups on day 6 post-tumor implant such that all tumor weights ranged from 50-100 mg and median tumor weights per group were reasonably similar. Therapeutic results are presented in terms of: (a) increases in lifespan reflected by the relative median survival time (MST) of treated versus control groups (i.e., %T/C values), and by long-term survivors, and (b) primary tumor growth inhibition (i.e., T-C values) determined by calculating the relative median times for treated (T) and control untreated (C) mice to grow tumors of a 0.5 g size for the LX-1 carcinoma or a 1 g size for the murine neoplasms. Tumor weights were interchangeable with tumor size on the basis of 1 mm^3 =1 mg. […] The activity criterion for tumor inhibition was a delay in tumor growth consistent with one log10 cell kill (LCK). The absolute T-C value needed to attain this level of efficacy varied from experiment to experiment and depended upon the tumor volume doubling time of the control mice in each study. Treated mice dying prior to day 10 in the ip M109 experiment, or dying before their tumors achieved 0.5 g for the LX-1 carcinoma or 1 g in size for all other sc tumor models, were considered to have died from drug toxicity. Groups of mice with more than one death due to drug toxicity were not used in the evaluation of antitumor efficacy. Statistical evaluations of data were performed using Gehan's generalized Wilcoxan test (Gehan, Biometrika, 1965, 52, 203-233).
# The human lung tumor, LX-1, xenografted sc in athymic mice, was also used to examine the antineoplastic potential of compound III. […]
# [3] = test system: several more stringent distal site tumor models; assay: Comparison with clinically active alkylating agents in several distal site tumor models; assay type: in vivo, mice; conditions: qualitative summary
# Protocol: B16F10 melanoma cells were grown in vitro as monolayers in minimum essential medium with Hank's salts supplemented with 10% fetal bovine serum and 1% 200 mM L-glutamine solution. Solid tumors were produced in C57BL/6 female mice 12- to 14-weeks of age by the intradermal injection in the right flank of each mouse of 0.1 mL of a cell suspension containing 10^6 B16F10 cells/mL from freshly trypsinized cultures. After 10-12 days, animals bearing approximately 100 mm^3 tumors were treated ip with compound III or IV dissolved in 100% DMSO for 6 consecutive days, and tumor volumes were measured on alternate days until reaching 1000 mm^3. […]
# Five mice per group were employed in experiments with the B16F10 melanoma, and 8 mice per group with the M5076 sarcoma, the M109 carcinoma and the LX-1 carcinoma. […] Therapeutic results are presented in terms of: (a) increases in lifespan reflected by the relative median survival time (MST) of treated versus control groups (i.e., %T/C values), and by long-term survivors, and (b) primary tumor growth inhibition (i.e., T-C values) determined by calculating the relative median times for treated (T) and control untreated (C) mice to grow tumors of a 0.5 g size for the LX-1 carcinoma or a 1 g size for the murine neoplasms. […]
smiles,measurement,setting,value
"CS(=O)(=O)N(CCCl)N(C(=O)NCCCl)S(C)(=O)=O [Compound III, 1,2-bis(methylsulfonyl)-1-(2-chloroethyl)-2-(2-chloroethyl)aminocarbonylhydrazine]",% 60 Day Survivors (cures),L1210 leukemia; 10 mg/kg ip once daily × 6,100%
same,% 60 Day Survivors (cures),L1210 leukemia; 15 mg/kg ip once daily × 6,80%
same,%T/C (average survival time treated/control × 100),L1210 leukemia; 15 mg/kg ip once daily × 6,216%
same,% 60 Day Survivors (cures),L1210 leukemia; 20 mg/kg ip once daily × 6,80%
same,%T/C (average survival time treated/control × 100),L1210 leukemia; 20 mg/kg ip once daily × 6,239%
same,antileukemic activity / therapeutic potential (in words),"L1210 leukemia; qualitative, L1210 leukemia in mice",One of the most active and potent compounds in the series; also recorded: much better therapeutic potential than the amino acid ester derivatives
same,Av. Wt. Change %,[1]; 10 mg/kg ip once daily × 6,-4.7%
same,Av. Wt. Change %,[1]; 15 mg/kg ip once daily × 6,-4.0%
same,Av. Wt. Change %,[1]; 20 mg/kg ip once daily × 6,-10.4%
same,loss in body weight,[1]; 20 mg/kg × 6,10.4%
same,toxicity (in words),[1]; 20 mg/kg × 6,somewhat toxic
same,"T-C, median delay in tumor growth to 0.5 g",[2],14.5 days
same,log10 cell kill (LCK),[2],1.6 LCK
same,antitumor activity versus clinical alkylating agents (in words),[3],better than or equal to some of the best clinically active alkylating agents used for comparison
